Where a SMILES comes first, the peptide text is derived from it. [ ]: non-standard residue; d: D form. Nle = CCCC[C@H](N)C(=O)O
Legend:
circular dichroism = assay: circular dichroism; parameters: unit not given here; conditions: 20 mM phosphoric acid; pH 2.0; 5 °C; 0.05 mg/mL
Figure 2 = assay: Figure 2; parameters: AUCall: concentration or dose not given beside the values; conditions: for C0 / half-life / MRT: Sprague-Dawley, rat, plasma, iv; for MRT: read-out: MRTinf_obs
Procedure: Table printed on a drawing sheet, Figure 2
Footnotes: 2 mg/mL iv bolus in Sprague-Dawley rats (10 mg/kg) / * 0.6 mg/mL iv bolus in Sprague-Dawley rats (3 mg/kg)
The patent's description of the figure: FIG. 2 lists the in vivo half-lives of peptidomimetic macrocycles of the invention. Half-lives were measured in Sprague Dawley rats after one intravenous bolus injection at 0.6 mg/mL or 2 mg/mL of each unlabeled peptidomimetic macrocycle at a 3 mg/kg or 10 mg/kg dose, respectively. Three animals were used per compound and concentrations were determined by mass-spectrometric analysis of blood levels (plasma).
First reader's note: An asterisk before the peptide name marks dosing at 3 mg/kg (0.6 mg/mL) instead of 10 mg/kg (2 mg/mL).

Figure 5 = assay: Figure 5
Description: Table printed on a drawing sheet, Figure 5
The patent's description of the figure: FIG. 5 illustrates the PK profile in rat and monkey for a peptidomimetic macrocycle of the invention.
First reader's note: The first row combines the substance name (SP2) with the conditions dose, route and species in one cell.

Row | Molecule | helicity (circular dichroism) | AUCall (Figure 2) | Cl_obs (Figure 2) | C0 (Figure 2) | half-life (Figure 2) | MRT (Figure 2) | AUC all (Figure 5) | Cmax (Figure 5) | MRTinf (Figure 5) | T ½ (Figure 5)
1 | Ac-QSQQTFSNLWRLLPQN-NH2 [*SP22] | -646 | 75 ng·h/mL | 700 mL/min/kg | 15100 ng/mL | < 0.1 h | < 0.1 h | – | – | – | –
2 | CC[C@H](C)[C@H](NC(C)=O)C(=O)N[C@@H](Cc1c[nH]c2ccccc12)C(=O)N[C@H](C(=O)N[C@@H](C)C(=O)N[C@@H](CCC(N)=O)C(=O)N[C@@H](CCC(=O)O)C(=O)N[C@@H](CC(C)C)C(=O)N[C@@H](CCCNC(=N)N)C(=O)N[C@@]1(C)CCCC=CCCC[C@@](C)(C(=O)N[C@@H](Cc2ccccc2)C(=O)N[C@@H](CC(N)=O)C(=O)N[C@@H](C)C(=O)N[C@@H](Cc2ccc(O)cc2)C(=O)N[C@@H](Cc2ccc(O)cc2)C(=O)N[C@@H](C)C(=O)N[C@@H](CCCNC(=N)N)C(=O)N[C@@H](CCCNC(=N)N)C(N)=O)NC(=O)[C@H](CC(=O)O)NC(=O)CNC(=O)[C@H]([C@@H](C)CC)NC1=O)[C@@H](C)CC (single isomer, unassigned) [SP2 10 mg/kg IV monkey] | – | – | – | – | – | – | 427932 ng·h/mL | 180010 ng/mL | 2.2 h | 1.9 h
3 | CC[C@H](C)[C@H](NC(C)=O)C(=O)N[C@@H](Cc1c[nH]c2ccccc12)C(=O)N[C@H](C(=O)N[C@@H](C)C(=O)N[C@]1(C)CCCC=CCCCC2(CCCC=CCCC[C@@](C)(C(=O)N[C@@H](Cc3ccccc3)C(=O)N[C@@H](CC(N)=O)C(=O)N[C@@H](C)C(=O)N[C@@H](Cc3ccc(O)cc3)C(=O)N[C@@H](Cc3ccc(O)cc3)C(=O)N[C@@H](C)C(=O)N[C@@H](CCCNC(=N)N)C(=O)N[C@@H](CCCNC(=N)N)C(N)=O)NC(=O)[C@H](CC(=O)O)NC(=O)CNC(=O)[C@H]([C@@H](C)CC)NC2=O)NC(=O)[C@H](CCCNC(=N)N)NC(=O)[C@H](CC(C)C)NC(=O)[C@H](C)NC1=O)[C@@H](C)CC (stereo partly drawn) [*SP20] | -19200 | 15000 ng·h/mL | 3.017 mL/min/kg | 1950 ng/mL | 10.8 h | 14.1 h | – | – | – | –
4 | CCCC[C@H](NC(=O)[C@H](CO)NC(=O)[C@H](CC(=O)O)NC(=O)CNC(=O)[C@@H](NC(=O)[C@H](CCC(N)=O)NC(=O)[C@H](C)NC(=O)[C@H](CC(C)C)NC(=O)[C@H](Cc1c[nH]cn1)NC(=O)[C@H](CCCNC(=N)N)NC(=O)[C@H](C)NC(=O)[C@@H](NC(=O)[C@H](CC(N)=O)NC(=O)[C@H](CCCNC(=N)N)NC(=O)[C@@H](NC(=O)[C@@H](NC(=O)[C@H](CC(=O)O)NC(C)=O)[C@@H](C)CC)[C@@H](C)CC)[C@@H](C)CC)C(C)C)C(=O)N[C@@H](CC(=O)O)C(=O)N[C@@H](CCCNC(=N)N)C(=O)N[C@@H](CO)C(=O)N[C@H](C(N)=O)[C@@H](C)CC [*SP11] (Ac-DIIRNIARHLAQVGDS[Nle]DRSI-NH2) | -1890 | 1136 ng·h/mL | 45.53 mL/min/kg | 1080 ng/mL | 1.3 h | 1.6 h | – | – | – | –
5 | CC[C@H](C)[C@H](NC(C)=O)C(=O)N[C@@]1(C)CCCC=CCCC[C@@](C)(C(=O)N[C@@H](CC(C)C)C(=O)N[C@@H](CCCNC(=N)N)C(=O)N[C@@]2(C)CCCC=CCCC[C@@](C)(C(=O)N[C@@H](Cc3ccccc3)C(=O)N[C@@H](CC(N)=O)C(=O)N[C@@H](C)C(=O)N[C@@H](Cc3ccc(O)cc3)C(=O)N[C@@H](Cc3ccc(O)cc3)C(=O)N[C@@H](C)C(=O)N[C@@H](CCCNC(=N)N)C(=O)N[C@@H](CCCNC(=N)N)C(N)=O)NC(=O)[C@H](CC(=O)O)NC(=O)CNC(=O)[C@H]([C@@H](C)CC)NC2=O)NC(=O)[C@H](CCC(N)=O)NC(=O)[C@H](C)NC(=O)[C@H]([C@@H](C)CC)NC1=O [*SP16] | -14400 | 125889 ng·h/mL | 0.4 mL/min/kg | 22900 ng/mL | 4.5 h | 4.4 h | – | – | – | –
6 | CC[C@H](C)[C@H](NC(C)=O)C(=O)N[C@@H](Cc1c[nH]c2ccccc12)C(=O)N[C@H](C(=O)N[C@@H](C)C(=O)N[C@@H](CCC(N)=O)C(=O)N[C@@H](CCC(=O)O)C(=O)N[C@@H](CC(C)C)C(=O)N[C@@H](CCCNC(=N)N)C(=O)N[C@@]1(C)CCCC=CCCC[C@@](C)(C(=O)N[C@@H](Cc2ccccc2)C(=O)N[C@@H](CC(N)=O)C(=O)N[C@@H](C)C(=O)N[C@@H](Cc2ccc(O)cc2)C(=O)N[C@@H](Cc2ccc(O)cc2)C(=O)N[C@@H](C)C(=O)N[C@@H](CCCNC(=N)N)C(=O)N[C@@H](CCCNC(=N)N)C(N)=O)NC(=O)[C@H](CC(=O)O)NC(=O)CNC(=O)[C@H]([C@@H](C)CC)NC1=O)[C@@H](C)CC (single isomer, unassigned) [SP2 10 mg/kg IV rat] | – | – | – | – | – | – | 170685 ng·h/mL | 70325 ng/mL | 3.1 h | 5.7 h
7 | CC[C@H](C)[C@H](NC(C)=O)C(=O)N[C@@H](Cc1c[nH]c2ccccc12)C(=O)N[C@H](C(=O)N[C@@H](C)C(=O)N[C@@H](CCC(N)=O)C(=O)N[C@@H](C)C(=O)N[C@@H](CC(C)C)C(=O)N[C@@H](CCCNC(=N)N)C(=O)N[C@@H](CCCNC(=N)N)C(=O)N[C@H](C(=O)NCC(=O)N[C@@H](CC(=O)O)C(=O)N[C@@H](CCC(=O)O)C(=O)N[C@@H](Cc1ccccc1)C(=O)N[C@@H](CC(N)=O)C(=O)N[C@@H](C)C(=O)N[C@@H](Cc1ccc(O)cc1)C(=O)N[C@@H](Cc1ccc(O)cc1)C(=O)N[C@@H](C)C(=O)N[C@@H](CCCNC(=N)N)C(=O)N[C@@H](CCCNC(=N)N)C(N)=O)[C@@H](C)CC)[C@@H](C)CC [*SP15] | -2000 | 8430 ng·h/mL | 7.467 mL/min/kg | 48000 ng/mL | 0.4 h | 0.2 h | – | – | – | –
8 | CC[C@H](C)[C@H](NC(C)=O)C(=O)N[C@@H](Cc1c[nH]c2ccccc12)C(=O)N[C@H](C(=O)N[C@@H](C)C(=O)N[C@@H](CCC(N)=O)C(=O)N[C@@H](CCC(=O)O)C(=O)N[C@@H](CC(C)C)C(=O)N[C@@H](CCCNC(=N)N)C(=O)N[C@@]1(C)CCCC=CCCC[C@@](C)(C(=O)N[C@@H](Cc2ccccc2)C(=O)N[C@@H](CC(N)=O)C(=O)N[C@@H](C)C(=O)N[C@@H](Cc2ccc(O)cc2)C(=O)N[C@@H](Cc2ccc(O)cc2)C(=O)N[C@@H](C)C(=O)N[C@@H](CCCNC(=N)N)C(=O)N[C@@H](CCCNC(=N)N)C(N)=O)NC(=O)[C@H](CC(=O)O)NC(=O)CNC(=O)[C@H]([C@@H](C)CC)NC1=O)[C@@H](C)CC (single isomer, unassigned) [SP2 1 mg/kg IV monkey] | – | – | – | – | – | – | 27275 ng·h/mL | 19049 ng/mL | 1.8 h | 2.2 h
